Experimental data as given in ChEMBL document CHEMBL3352497, “Design and optimization of novel 4-(2-fluorophenoxy)quinoline derivatives bearing a hydrazone moiety as c-Met kinase inhibitors” (Eur J Med Chem, 2014).

Assays:
[1] = Antiproliferative activity against human MKN45 cells assessed as inhibition of cell growth after 72 hrs by MTT assay; assay type: functional, cell-based; conditions: MKN-45, 72 h
cells = conditions: Homo sapiens, NCI-H460, 72 h
[2] = Antiproliferative activity against human U87MG cells assessed as inhibition of cell growth after 72 hrs by MTT assay; assay type: functional, cell-based, U-87MG ATCC; conditions: U-87 MG
A549 = assay: cells; conditions: Homo sapiens, A549, 72 h
Description: Antiproliferative activity against human A549 cells assessed as inhibition of cell growth after 72 hrs by MTT assay

HT-29 = assay: cells; conditions: Homo sapiens, HT-29, 72 h
Description: Antiproliferative activity against human HT-29 cells assessed as inhibition of cell growth after 72 hrs by MTT assay

[3] = target: Hepatocyte growth factor receptor (Homo sapiens, UniProt P08581); assay: Inhibition of c-Met (unknown origin) using poly (Glu, Tyr) 4:1 substrate by HTRF assay
[4] = target: Mast/stem cell growth factor receptor Kit (Homo sapiens, UniProt P10721); assay: Inhibition of c-KIT (unknown origin)
Mast/stem cell growth factor receptor Kit, sequence (P10721 whole entry): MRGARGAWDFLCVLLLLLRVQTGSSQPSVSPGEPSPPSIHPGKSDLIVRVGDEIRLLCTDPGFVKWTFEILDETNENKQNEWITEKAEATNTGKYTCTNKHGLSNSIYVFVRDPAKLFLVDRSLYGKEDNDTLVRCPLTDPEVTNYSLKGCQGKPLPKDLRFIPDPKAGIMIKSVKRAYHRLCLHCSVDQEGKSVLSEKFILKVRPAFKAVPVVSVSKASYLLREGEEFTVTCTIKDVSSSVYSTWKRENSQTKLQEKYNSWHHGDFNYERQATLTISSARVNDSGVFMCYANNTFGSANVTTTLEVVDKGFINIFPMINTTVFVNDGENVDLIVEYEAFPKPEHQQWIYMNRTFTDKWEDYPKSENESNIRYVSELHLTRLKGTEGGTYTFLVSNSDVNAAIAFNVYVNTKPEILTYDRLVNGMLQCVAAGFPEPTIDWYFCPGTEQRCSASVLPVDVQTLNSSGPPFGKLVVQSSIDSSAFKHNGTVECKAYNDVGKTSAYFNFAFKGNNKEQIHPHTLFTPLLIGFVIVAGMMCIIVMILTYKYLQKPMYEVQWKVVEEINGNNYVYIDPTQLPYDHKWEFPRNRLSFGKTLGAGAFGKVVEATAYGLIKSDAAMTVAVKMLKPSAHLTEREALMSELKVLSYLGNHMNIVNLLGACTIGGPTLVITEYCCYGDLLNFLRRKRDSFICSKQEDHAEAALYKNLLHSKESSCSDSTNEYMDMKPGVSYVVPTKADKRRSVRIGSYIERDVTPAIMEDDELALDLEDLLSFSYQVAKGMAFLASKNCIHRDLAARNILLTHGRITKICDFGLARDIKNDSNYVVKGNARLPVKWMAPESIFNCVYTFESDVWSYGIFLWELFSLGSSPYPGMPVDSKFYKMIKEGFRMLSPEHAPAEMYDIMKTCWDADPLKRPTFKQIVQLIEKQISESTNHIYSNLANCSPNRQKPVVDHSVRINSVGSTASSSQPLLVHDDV

[5] = target: Epidermal growth factor receptor (Homo sapiens, UniProt P00533); assay: Inhibition of EGFR (unknown origin)
Epidermal growth factor receptor, sequence (P00533 whole entry): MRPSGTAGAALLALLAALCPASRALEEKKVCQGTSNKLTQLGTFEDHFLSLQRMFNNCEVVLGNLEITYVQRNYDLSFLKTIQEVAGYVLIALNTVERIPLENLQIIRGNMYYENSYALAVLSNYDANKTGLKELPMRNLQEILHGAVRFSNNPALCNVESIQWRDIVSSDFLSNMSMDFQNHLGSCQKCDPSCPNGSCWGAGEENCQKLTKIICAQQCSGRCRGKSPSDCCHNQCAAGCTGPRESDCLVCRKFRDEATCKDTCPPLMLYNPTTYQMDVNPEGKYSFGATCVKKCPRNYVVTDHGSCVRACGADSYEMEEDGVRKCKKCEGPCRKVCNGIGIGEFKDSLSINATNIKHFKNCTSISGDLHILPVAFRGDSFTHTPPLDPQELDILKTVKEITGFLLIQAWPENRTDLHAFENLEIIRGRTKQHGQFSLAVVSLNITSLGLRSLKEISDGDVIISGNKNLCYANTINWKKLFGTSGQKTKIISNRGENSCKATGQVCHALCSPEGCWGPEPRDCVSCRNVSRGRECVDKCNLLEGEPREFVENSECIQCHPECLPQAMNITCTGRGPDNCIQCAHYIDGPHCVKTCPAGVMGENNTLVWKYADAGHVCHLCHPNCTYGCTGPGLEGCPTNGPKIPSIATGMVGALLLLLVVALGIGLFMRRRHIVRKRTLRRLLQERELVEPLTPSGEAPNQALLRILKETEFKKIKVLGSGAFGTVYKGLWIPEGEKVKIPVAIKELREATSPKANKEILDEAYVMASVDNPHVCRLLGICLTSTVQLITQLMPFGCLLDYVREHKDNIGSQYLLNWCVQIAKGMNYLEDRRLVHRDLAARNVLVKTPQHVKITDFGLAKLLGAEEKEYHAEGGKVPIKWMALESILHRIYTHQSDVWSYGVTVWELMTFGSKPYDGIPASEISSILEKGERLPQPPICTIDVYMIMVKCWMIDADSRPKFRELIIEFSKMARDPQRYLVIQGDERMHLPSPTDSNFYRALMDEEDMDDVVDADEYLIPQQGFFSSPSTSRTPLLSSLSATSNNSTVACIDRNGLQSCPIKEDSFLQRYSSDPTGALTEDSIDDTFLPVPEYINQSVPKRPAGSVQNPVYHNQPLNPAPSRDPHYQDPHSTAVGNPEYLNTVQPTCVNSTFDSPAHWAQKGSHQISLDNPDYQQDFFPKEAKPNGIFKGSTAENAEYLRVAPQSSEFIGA

[6] = target: Vascular endothelial growth factor receptor 2 (Homo sapiens, UniProt P35968); assay: Inhibition of KDR (unknown origin)
Vascular endothelial growth factor receptor 2, sequence (P35968 whole entry): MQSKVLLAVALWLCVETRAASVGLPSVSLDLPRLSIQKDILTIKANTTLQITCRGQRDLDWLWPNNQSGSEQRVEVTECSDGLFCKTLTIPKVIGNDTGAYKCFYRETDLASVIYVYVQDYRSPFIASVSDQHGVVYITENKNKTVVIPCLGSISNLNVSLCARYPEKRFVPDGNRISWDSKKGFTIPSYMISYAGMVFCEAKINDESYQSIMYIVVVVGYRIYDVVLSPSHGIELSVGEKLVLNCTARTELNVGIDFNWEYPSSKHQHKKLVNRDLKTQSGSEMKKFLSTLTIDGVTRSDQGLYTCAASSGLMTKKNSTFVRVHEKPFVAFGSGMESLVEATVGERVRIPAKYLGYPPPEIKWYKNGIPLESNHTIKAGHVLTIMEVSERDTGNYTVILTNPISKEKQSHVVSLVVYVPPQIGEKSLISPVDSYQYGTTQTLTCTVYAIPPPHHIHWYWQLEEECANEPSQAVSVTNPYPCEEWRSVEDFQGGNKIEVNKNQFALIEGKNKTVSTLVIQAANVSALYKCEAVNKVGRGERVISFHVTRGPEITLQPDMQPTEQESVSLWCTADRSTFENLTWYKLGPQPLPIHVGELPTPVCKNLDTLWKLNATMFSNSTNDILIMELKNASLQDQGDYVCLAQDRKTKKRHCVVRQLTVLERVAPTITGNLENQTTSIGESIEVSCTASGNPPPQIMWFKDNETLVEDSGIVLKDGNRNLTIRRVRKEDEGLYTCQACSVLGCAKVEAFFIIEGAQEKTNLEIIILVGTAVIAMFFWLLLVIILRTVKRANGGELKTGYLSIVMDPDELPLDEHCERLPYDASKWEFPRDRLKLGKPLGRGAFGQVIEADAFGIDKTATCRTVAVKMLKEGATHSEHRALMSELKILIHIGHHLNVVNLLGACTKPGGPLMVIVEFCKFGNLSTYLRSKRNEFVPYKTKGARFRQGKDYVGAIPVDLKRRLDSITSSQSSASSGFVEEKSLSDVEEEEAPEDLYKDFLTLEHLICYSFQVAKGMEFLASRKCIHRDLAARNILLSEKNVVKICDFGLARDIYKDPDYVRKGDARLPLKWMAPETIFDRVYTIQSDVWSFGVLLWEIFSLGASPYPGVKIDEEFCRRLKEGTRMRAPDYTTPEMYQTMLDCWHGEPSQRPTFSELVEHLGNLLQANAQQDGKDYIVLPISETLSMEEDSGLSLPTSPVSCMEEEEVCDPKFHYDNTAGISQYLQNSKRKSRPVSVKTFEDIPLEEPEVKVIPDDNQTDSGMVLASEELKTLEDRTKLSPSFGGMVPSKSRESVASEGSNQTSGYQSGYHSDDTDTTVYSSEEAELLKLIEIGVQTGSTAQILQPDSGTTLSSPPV

[7] = target: Macrophage-stimulating protein receptor (Homo sapiens, UniProt Q04912); assay: Inhibition of RON (unknown origin)
Macrophage-stimulating protein receptor, sequence (Q04912 25-304 limits assumed): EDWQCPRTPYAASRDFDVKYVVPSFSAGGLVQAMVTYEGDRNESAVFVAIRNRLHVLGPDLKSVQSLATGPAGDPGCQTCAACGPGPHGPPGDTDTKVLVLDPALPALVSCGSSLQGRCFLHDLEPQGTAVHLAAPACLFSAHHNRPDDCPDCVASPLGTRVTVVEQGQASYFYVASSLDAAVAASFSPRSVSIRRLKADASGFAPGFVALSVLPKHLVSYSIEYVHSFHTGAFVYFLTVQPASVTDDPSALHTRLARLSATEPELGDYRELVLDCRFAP
Macrophage-stimulating protein receptor, sequence (Q04912 310-1400 limits assumed): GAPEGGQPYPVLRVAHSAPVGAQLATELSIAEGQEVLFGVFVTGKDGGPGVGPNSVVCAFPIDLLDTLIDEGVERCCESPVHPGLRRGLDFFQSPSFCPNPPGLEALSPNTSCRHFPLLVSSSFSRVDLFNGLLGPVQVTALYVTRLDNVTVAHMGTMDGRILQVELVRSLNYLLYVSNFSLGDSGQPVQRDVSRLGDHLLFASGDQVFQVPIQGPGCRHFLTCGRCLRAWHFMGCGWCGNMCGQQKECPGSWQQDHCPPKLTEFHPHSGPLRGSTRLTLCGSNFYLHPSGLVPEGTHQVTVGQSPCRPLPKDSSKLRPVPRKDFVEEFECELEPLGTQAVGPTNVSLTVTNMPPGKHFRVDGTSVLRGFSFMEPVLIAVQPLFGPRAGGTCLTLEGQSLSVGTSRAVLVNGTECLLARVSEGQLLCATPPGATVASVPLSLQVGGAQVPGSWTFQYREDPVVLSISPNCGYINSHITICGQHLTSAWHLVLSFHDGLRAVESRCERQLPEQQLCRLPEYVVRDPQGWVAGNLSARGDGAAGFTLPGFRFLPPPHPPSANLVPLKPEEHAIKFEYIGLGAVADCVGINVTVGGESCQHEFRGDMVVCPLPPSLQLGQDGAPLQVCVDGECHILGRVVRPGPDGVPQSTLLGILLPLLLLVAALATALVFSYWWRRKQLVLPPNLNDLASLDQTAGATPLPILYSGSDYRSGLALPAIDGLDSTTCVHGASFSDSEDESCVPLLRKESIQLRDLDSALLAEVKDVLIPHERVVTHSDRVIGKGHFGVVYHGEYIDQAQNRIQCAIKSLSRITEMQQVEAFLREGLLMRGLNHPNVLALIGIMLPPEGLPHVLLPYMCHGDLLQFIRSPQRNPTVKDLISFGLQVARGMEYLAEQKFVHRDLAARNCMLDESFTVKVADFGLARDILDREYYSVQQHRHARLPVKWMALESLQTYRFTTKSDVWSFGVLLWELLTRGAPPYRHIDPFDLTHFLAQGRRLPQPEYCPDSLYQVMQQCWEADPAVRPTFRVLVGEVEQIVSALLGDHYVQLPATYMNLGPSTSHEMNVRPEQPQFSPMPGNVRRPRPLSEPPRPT

[8] = target: T1, Receptor-type tyrosine-protein kinase FLT3 (Homo sapiens, UniProt P36888); assay: Inhibition of FLT3 (unknown origin)
T1 sequence (P36888 whole entry): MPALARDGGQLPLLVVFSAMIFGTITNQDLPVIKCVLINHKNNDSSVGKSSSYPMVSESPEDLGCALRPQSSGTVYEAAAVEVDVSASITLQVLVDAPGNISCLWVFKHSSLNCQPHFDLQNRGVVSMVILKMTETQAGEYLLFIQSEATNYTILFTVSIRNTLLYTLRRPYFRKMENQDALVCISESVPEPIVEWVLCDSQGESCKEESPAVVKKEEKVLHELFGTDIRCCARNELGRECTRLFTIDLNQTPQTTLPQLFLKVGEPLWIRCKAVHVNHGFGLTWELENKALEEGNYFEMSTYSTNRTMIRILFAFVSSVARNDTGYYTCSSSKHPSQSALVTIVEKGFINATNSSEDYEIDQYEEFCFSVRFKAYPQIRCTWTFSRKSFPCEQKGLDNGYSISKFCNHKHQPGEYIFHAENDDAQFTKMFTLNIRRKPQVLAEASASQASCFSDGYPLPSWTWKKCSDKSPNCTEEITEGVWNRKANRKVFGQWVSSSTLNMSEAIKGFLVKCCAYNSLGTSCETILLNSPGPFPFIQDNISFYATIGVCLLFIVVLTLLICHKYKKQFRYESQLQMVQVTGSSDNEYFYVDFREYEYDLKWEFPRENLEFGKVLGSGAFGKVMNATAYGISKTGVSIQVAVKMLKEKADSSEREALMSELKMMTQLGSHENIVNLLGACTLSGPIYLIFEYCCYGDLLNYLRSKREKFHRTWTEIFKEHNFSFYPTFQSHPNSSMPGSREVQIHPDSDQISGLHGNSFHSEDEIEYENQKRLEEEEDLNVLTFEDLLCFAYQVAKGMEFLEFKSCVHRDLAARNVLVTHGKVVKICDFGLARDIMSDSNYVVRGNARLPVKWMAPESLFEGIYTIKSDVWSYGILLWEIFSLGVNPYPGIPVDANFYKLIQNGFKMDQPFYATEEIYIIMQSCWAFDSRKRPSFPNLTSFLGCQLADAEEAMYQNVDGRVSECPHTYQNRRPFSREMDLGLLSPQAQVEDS

| Structure (SMILES) | IC50 (cells) | IC50 (A549) | IC50 (HT-29) | IC50 [3] | IC50 [4] | IC50 [5] | IC50 [6] | IC50 [7] | IC50 [8] | IC50 [1] | IC50 [2] |
| --- | --- | --- | --- | --- | --- | --- | --- | --- | --- | --- | --- |
| COc1cc2c(Oc3ccc(CC(=O)N/N=C(/C)c4ccc(Cl)cc4)cc3F)ccnc2cc1OCCCN1CCCC1 | 83 nM | 190 nM | 290 nM | – | – | – | – | – | – | – | – |
| COc1cc2c(Oc3ccc(CC(=O)N/N=C/c4ccccc4)cc3F)ccnc2cc1OCCCN1CCC(C)CC1 | 170 nM | 340 nM | 810 nM | – | – | – | – | – | – | 2120 nM | 970 nM |
| COc1cc2c(Oc3ccc(CC(=O)N/N=C(/C)c4ccccc4)cc3F)ccnc2cc1OCCCN1CCCCC1 | 340 nM | 520 nM | 970 nM | – | – | – | – | – | – | 1990 nM | 1380 nM |
| COc1cc2c(Oc3ccc(CC(=O)N/N=C(/C)c4ccc(F)cc4)cc3F)ccnc2cc1OCCCN1CCCC1 | 72 nM | 170 nM | 280 nM | – | – | – | – | – | – | 580 nM | 350 nM |
| COc1ccc(/C=N/NC(=O)Cc2ccc(Oc3ccnc4cc(OCCCN5CCOCC5)c(OC)cc34)c(F)c2)cc1 | 450 nM | 960 nM | 1720 nM | – | – | – | – | – | – | 3910 nM | 2650 nM |
| COc1cc2c(Oc3ccc(CC(=O)N/N=C/c4ccccc4F)cc3F)ccnc2cc1OCCCN1CCCC1 | 82 nM | 320 nM | 480 nM | – | – | – | – | – | – | 980 nM | 810 nM |
| COc1cc2c(Oc3ccc(CC(=O)N/N=C/c4ccc(O)c(Br)c4)cc3F)ccnc2cc1OCCCN1CCOCC1 | 1080 nM | 2540 nM | 3670 nM | – | – | – | – | – | – | – | – |
| COc1cc2c(Oc3ccc(CC(=O)N/N=C(/C)c4ccc(C(F)(F)F)cc4)cc3F)ccnc2cc1OCCCN1CCOCC1 | 71 nM | 170 nM | 260 nM | – | – | – | – | – | – | 590 nM | 390 nM |
| COc1cc2c(Oc3ccc(CC(=O)N/N=C/c4ccc(Cl)cc4)cc3F)ccnc2cc1OCCCN1CCCC1 | 75 nM | 170 nM | 280 nM | – | – | – | – | – | – | 620 nM | 400 nM |
| COc1cc2c(Oc3ccc(CC(=O)N/N=C(/C)c4ccc(C(F)(F)F)cc4)cc3F)ccnc2cc1OCCCN1CCCCC1 | 130 nM | 290 nM | 450 nM | – | – | – | – | – | – | 940 nM | 590 nM |
| COc1cc2c(Oc3ccc(CC(=O)N/N=C(/C)c4ccccc4)cc3F)ccnc2cc1OCCCN1CCC(C)CC1 | 200 nM | 390 nM | 950 nM | – | – | – | – | – | – | 2690 nM | 1480 nM |
| COc1cc2c(Oc3ccc(CC(=O)N/N=C/c4ccco4)cc3F)ccnc2cc1OCCCN1CCOCC1 | 880 nM | 3190 nM | 2780 nM | – | – | – | – | – | – | – | – |
| COc1cc2c(Oc3ccc(CC(=O)N/N=C/c4ccncc4)cc3F)ccnc2cc1OCCCN1CCOCC1 | 94 nM | 160 nM | 320 nM | – | – | – | – | – | – | 790 nM | 500 nM |
| COc1cc2c(Oc3ccc(CC(=O)N/N=C(/C)c4ccc(O)cc4)cc3F)ccnc2cc1OCCCN1CCCC1 | 180 nM | 410 nM | 780 nM | – | – | – | – | – | – | 1680 nM | 1160 nM |
| COc1cc2c(Oc3ccc(CC(=O)N/N=C/c4ccccc4)cc3F)ccnc2cc1OCCCN1CCOCC1 | 110 nM | 230 nM | 410 nM | – | – | – | – | – | – | 820 nM | 480 nM |
| COc1cc2c(Oc3ccc(CC(=O)N/N=C/c4cccs4)cc3F)ccnc2cc1OCCCN1CCOCC1 | 280 nM | 390 nM | 960 nM | – | – | – | – | – | – | 1820 nM | 1150 nM |

Further lines, with some results ahead:

| IC50 (cells) | IC50 (A549) | IC50 (HT-29) | IC50 [3] | IC50 [4] | IC50 [5] | IC50 [6] | IC50 [7] | IC50 [8] | Structure (SMILES) | IC50 [1] | IC50 [2] |
| --- | --- | --- | --- | --- | --- | --- | --- | --- | --- | --- | --- |
| 220 nM | 400 nM | 800 nM | – | – | – | – | – | – | COc1cc2c(Oc3ccc(CC(=O)N/N=C/c4ccccc4)cc3F)ccnc2cc1OCCCN1CCCCC1 | 1580 nM | 1020 nM |
| 1170 nM | 2980 nM | 3940 nM | – | – | – | – | – | – | COc1cc(/C=N/NC(=O)Cc2ccc(Oc3ccnc4cc(OCCCN5CCOCC5)c(OC)cc34)c(F)c2)ccc1O | 11200 nM | 5860 nM |
| 100 nM | 250 nM | 480 nM | – | – | – | – | – | – | COc1cc2c(Oc3ccc(CC(=O)N/N=C/c4ccc(S(C)(=O)=O)cc4)cc3F)ccnc2cc1OCCCN1CCOCC1 | 1140 nM | 680 nM |
| 310 nM | 560 nM | 1300 nM | – | – | – | – | – | – | COc1cc2c(Oc3ccc(CC(=O)N/N=C/c4ccc(O)cc4)cc3F)ccnc2cc1OCCCN1CCOCC1 | 3220 nM | 1700 nM |
| 67 nM | 140 nM | 260 nM | – | – | – | – | – | – | COc1cc2c(Oc3ccc(CC(=O)N/N=C/c4ccc(F)cc4)cc3F)ccnc2cc1OCCCN1CCCC1 | 560 nM | 420 nM |
| 760 nM | 1220 nM | 2360 nM | – | – | – | – | – | – | COc1cc2c(Oc3ccc(CC(=O)N/N=C/c4ccc[nH]4)cc3F)ccnc2cc1OCCCN1CCOCC1 | – | – |
| 96 nM | 220 nM | 360 nM | – | – | – | – | – | – | COc1cc2c(Oc3ccc(CC(=O)N/N=C(/C)c4ccc(C(F)(F)F)cc4)cc3F)ccnc2cc1OCCCN1CCC(C)CC1 | 840 nM | 510 nM |
| 7140 nM | 23000 nM | 25200 nM | – | – | – | – | – | – | COc1cc2c(Oc3ccc(CC(=O)N/N=C/C(C)C)cc3F)ccnc2cc1OCCCN1CCOCC1 | – | – |
| 99 nM | 280 nM | 440 nM | – | – | – | – | – | – | COc1cc2c(Oc3ccc(CC(=O)N/N=C(/C)c4ccccc4)cc3F)ccnc2cc1OCCCN1CCCC1 | 760 nM | 590 nM |
| 55 nM | 110 nM | 220 nM | – | – | – | – | – | – | COc1cc2c(Oc3ccc(CC(=O)N/N=C/c4ccc(C(F)(F)F)cc4)cc3F)ccnc2cc1OCCCN1CCOCC1 | 490 nM | 300 nM |
| 83 nM | 140 nM | 340 nM | – | – | – | – | – | – | COc1cc2c(Oc3ccc(CC(=O)N/N=C/c4ccccc4)cc3F)ccnc2cc1OCCCN1CCCC1 | 720 nM | 420 nM |
| 46 nM | 96 nM | 190 nM | – | – | – | – | – | – | COc1cc2c(Oc3ccc(CC(=O)N/N=C(/C)c4ccc(C(F)(F)F)cc4)cc3F)ccnc2cc1OCCCN1CCCC1 | 420 nM | 370 nM |
| 190 nM | 350 nM | 540 nM | – | – | – | – | – | – | COc1cc2c(Oc3ccc(CC(=O)N/N=C(/C)c4ccccc4)cc3F)ccnc2cc1OCCCN1CCOCC1 | 970 nM | 610 nM |
| 81 nM | 200 nM | 380 nM | – | – | – | – | – | – | COc1cc2c(Oc3ccc(CC(=O)N/N=C/c4ccc(OC(F)(F)F)cc4)cc3F)ccnc2cc1OCCCN1CCOCC1 | 690 nM | 450 nM |
| 31 nM | 80 nM | 150 nM | 1.86 nM | 45 nM | > 100000 nM | 560 nM | 28.6 nM | 390 nM | COc1cc2c(Oc3ccc(CC(=O)N/N=C/c4ccc(C(F)(F)F)cc4)cc3F)ccnc2cc1OCCCN1CCCC1 | 370 nM | 290 nM |
| 58 nM | 130 nM | 200 nM | – | – | – | – | – | – | COc1cc2c(Oc3ccc(CC(=O)N/N=C/c4ccc(OC(F)(F)F)cc4)cc3F)ccnc2cc1OCCCN1CCCC1 | 460 nM | 330 nM |
